# Test results: ChEMBL document CHEMBL1201862, “PubChem BioAssay data set” (2004)
#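 The compound was tested at five concentrations on cells cultured in 96-well plates, with a 48-hour exposure period. Here, GI50 denotes the concentration required for 50% inhibition of growth.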 Active and inactive are the calls of the source. Rule as the data show it: active = GI50 up to about 1.1 µM and inactive = higher.
# Assays:
# Experiment in all cases: NCI tumour cell line growth inhibition, 48 h
# A498 = system: A498
# COLO 205 = system: COLO 205
# EKVX = system: EKVX
# HCT-116 = system: HCT-116
# HOP-62 = system: HOP-62
# HOP-92 = system: HOP-92
# MCF7 = system: MCF7
# MDA-MB-231 = system: MDA-MB-231
# MDA-MB-435 = system: MDA-MB-435
# NCI-H226 = system: NCI-H226
# NCI-H23 = system: NCI-H23
# NCI-H460 = system: NCI-H460
# NCI/ADR-RES = system: NCI/ADR-RES
# OVCAR-4 = system: OVCAR-4
# OVCAR-5 = system: OVCAR-5
# RPMI-8226 = system: RPMI-8226
# SK-OV-3 = system: SK-OV-3
# SN12C = system: SN12C
# T47D = system: T47D
SMILES,GI50 (A498),GI50 (COLO 205),GI50 (EKVX),GI50 (HCT-116),GI50 (HOP-62),GI50 (HOP-92),GI50 (MCF7),GI50 (MDA-MB-231),GI50 (MDA-MB-435),GI50 (NCI-H226),GI50 (NCI-H23),GI50 (NCI-H460),GI50 (NCI/ADR-RES),GI50 (OVCAR-4),GI50 (OVCAR-5),GI50 (RPMI-8226),GI50 (SK-OV-3),GI50 (SN12C),GI50 (T47D)
CCOC(=O)N/N=C(/OCC)c1ccccc1,> 100 µM (inactive),> 100 µM (inactive),> 100 µM (inactive),> 100 µM (inactive),> 100 µM (inactive),> 100 µM (inactive),> 100 µM (inactive),> 100 µM (inactive),> 100 µM (inactive),> 100 µM (inactive),> 100 µM (inactive),> 100 µM (inactive),> 100 µM (inactive),> 100 µM (inactive),> 100 µM (inactive),> 100 µM (inactive),> 100 µM (inactive),> 100 µM (inactive),> 100 µM (inactive)
O=C(CCC1CCCCC1)NCc1ccc(C(=O)O)cc1,> 100 µM (inactive),> 100 µM (inactive),56.9 µM (inactive),> 100 µM (inactive),> 100 µM (inactive),> 100 µM (inactive),> 100 µM (inactive),> 100 µM (inactive),> 100 µM (inactive),> 100 µM (inactive),> 100 µM (inactive),> 100 µM (inactive),> 100 µM (inactive),> 100 µM (inactive),> 100 µM (inactive),> 100 µM (inactive),> 100 µM (inactive),> 100 µM (inactive),> 100 µM (inactive)
C#CCSc1nc(-c2ccco2)n[nH]1,> 100 µM (inactive),> 100 µM (inactive),> 100 µM (inactive),> 100 µM (inactive),49.3 µM (inactive),> 100 µM (inactive),> 100 µM (inactive),> 100 µM (inactive),> 100 µM (inactive),> 100 µM (inactive),> 100 µM (inactive),> 100 µM (inactive),> 100 µM (inactive),> 100 µM (inactive),> 100 µM (inactive),> 100 µM (inactive),> 100 µM (inactive),> 100 µM (inactive),> 100 µM (inactive)
Fc1cccc(F)c1C1SCc2nc3cc4ccccc4cc3n21 (stereo not drawn),21.2 µM (inactive),31.2 µM (inactive),54.6 µM (inactive),47 µM (inactive),95.9 µM (inactive),16.3 µM (inactive),47.2 µM (inactive),27.5 µM (inactive),49.9 µM (inactive),23.3 µM (inactive),52.7 µM (inactive),–,> 100 µM (inactive),3.16 µM (inactive),64 µM (inactive),6.92 µM (inactive),91 µM (inactive),34.1 µM (inactive),23 µM (inactive)
Cc1cc(C)c(C)c(-n2[nH]c(=O)n(C)c2=O)c1C,> 100 µM (inactive),> 100 µM (inactive),> 100 µM (inactive),> 100 µM (inactive),> 100 µM (inactive),> 100 µM (inactive),> 100 µM (inactive),> 100 µM (inactive),> 100 µM (inactive),> 100 µM (inactive),> 100 µM (inactive),> 100 µM (inactive),> 100 µM (inactive),–,> 100 µM (inactive),> 100 µM (inactive),> 100 µM (inactive),> 100 µM (inactive),> 100 µM (inactive)
C=CCOC(=O)N1c2ccc(O)cc2[C@@]23O[C@@]24[C@@H]1C#C/C=C\C#C[C@]3(O)C(OC)(OC)C[C@@H]4C,25.5 µM (inactive),19.1 µM (inactive),53.2 µM (inactive),35.2 µM (inactive),34.6 µM (inactive),16.4 µM (inactive),35 µM (inactive),23.6 µM (inactive),15.1 µM (inactive),24.9 µM (inactive),24.4 µM (inactive),24.4 µM (inactive),32.3 µM (inactive),0.258 µM (active),75.9 µM (inactive),34.4 µM (inactive),61 µM (inactive),23.8 µM (inactive),> 100 µM (inactive)
Cc1cc(C)nc(NS(=O)(=O)c2ccc(Nc3c4ccccc4nc4ccc(C(=O)Nc5ccc(S(N)(=O)=O)cc5)cc34)cc2)n1,> 100 µM (inactive),> 100 µM (inactive),> 100 µM (inactive),> 100 µM (inactive),> 100 µM (inactive),> 100 µM (inactive),> 100 µM (inactive),20 µM (inactive),> 100 µM (inactive),> 100 µM (inactive),> 100 µM (inactive),> 100 µM (inactive),69.3 µM (inactive),> 100 µM (inactive),> 100 µM (inactive),77.4 µM (inactive),> 100 µM (inactive),> 100 µM (inactive),78 µM (inactive)
Cc1ccsc1/C=N/Nc1nc2ccccc2s1,2.35 µM (inactive),35.2 µM (inactive),19.3 µM (inactive),11.2 µM (inactive),8.99 µM (inactive),13.4 µM (inactive),11.5 µM (inactive),12.8 µM (inactive),70.1 µM (inactive),19.4 µM (inactive),31.8 µM (inactive),–,21.4 µM (inactive),19.7 µM (inactive),40.9 µM (inactive),19.4 µM (inactive),12.5 µM (inactive),13.3 µM (inactive),48.8 µM (inactive)
NS(=O)(=O)c1ccc(/N=N/c2nc3[nH]cnc(=S)c3[nH]2)cc1,23 µM (inactive),2.43 µM (inactive),2.21 µM (inactive),0.568 µM (active),0.564 µM (active),11.1 µM (inactive),0.944 µM (active),1.21 µM (inactive),0.975 µM (active),4.65 µM (inactive),1.74 µM (inactive),0.82 µM (active),0.365 µM (active),4.51 µM (inactive),0.759 µM (active),0.31 µM (active),0.411 µM (active),1.87 µM (inactive),1.16 µM (inactive)
CC(CN(C)C)C(=O)/C=C/c1ccc(Cl)c(Cl)c1 (stereo not drawn),1.78 µM (inactive),1.3 µM (inactive),1.7 µM (inactive),1.56 µM (inactive),2.96 µM (inactive),1.68 µM (inactive),0.307 µM (active),1.73 µM (inactive),1.63 µM (inactive),2.2 µM (inactive),2.11 µM (inactive),2.24 µM (inactive),3.52 µM (inactive),4.76 µM (inactive),2.06 µM (inactive),0.338 µM (active),4.55 µM (inactive),1.58 µM (inactive),24.7 µM (inactive)
O=C(O)CN1CCNCCNCC1,> 100 µM (inactive),> 100 µM (inactive),> 100 µM (inactive),> 100 µM (inactive),> 100 µM (inactive),> 100 µM (inactive),> 100 µM (inactive),> 100 µM (inactive),> 100 µM (inactive),> 100 µM (inactive),–,> 100 µM (inactive),> 100 µM (inactive),> 100 µM (inactive),> 100 µM (inactive),> 100 µM (inactive),> 100 µM (inactive),> 100 µM (inactive),> 100 µM (inactive)
CC(CC[C@@]1(O)OC2C[C@H]3[C@@H]4CC[C@H]5CC(OC6OC(CO)C(OC7OC(CO)C(O)C(OC8OCC(O)C(O)C8O)C7OC7OC(CO)C(O)C(O)C7O)C(O)C6O)[C@H](O)CC5(C)[C@H]4CCC3(C)C2[C@@H]1C)COC1OC(CO)C(O)C(O)C1O (stereo partly drawn),18.9 µM (inactive),13 µM (inactive),2.38 µM (inactive),3.67 µM (inactive),4.15 µM (inactive),17.7 µM (inactive),8.71 µM (inactive),25.9 µM (inactive),14.8 µM (inactive),13.5 µM (inactive),2.8 µM (inactive),2.09 µM (inactive),6.65 µM (inactive),9.79 µM (inactive),11.7 µM (inactive),19.4 µM (inactive),13.2 µM (inactive),2.35 µM (inactive),12.2 µM (inactive)
O=C(Nc1cccc2ccccc12)c1cc2ccccc2oc1=O,47.9 µM (inactive),> 100 µM (inactive),–,36.8 µM (inactive),14.5 µM (inactive),> 100 µM (inactive),> 100 µM (inactive),23.6 µM (inactive),> 100 µM (inactive),21.8 µM (inactive),36.7 µM (inactive),> 100 µM (inactive),60.3 µM (inactive),78 µM (inactive),41.1 µM (inactive),> 100 µM (inactive),30.2 µM (inactive),> 100 µM (inactive),> 100 µM (inactive)
CC1C(C#N)(C#N)C(C#N)=C(N)C1(Cl)[N+](=O)[O-] (stereo not drawn),17.4 µM (inactive),4.9 µM (inactive),17.8 µM (inactive),7.19 µM (inactive),3.08 µM (inactive),2.08 µM (inactive),17.2 µM (inactive),13.2 µM (inactive),16.7 µM (inactive),17.1 µM (inactive),18.7 µM (inactive),–,16 µM (inactive),12.8 µM (inactive),14.9 µM (inactive),11.2 µM (inactive),17 µM (inactive),8.18 µM (inactive),15.7 µM (inactive)
OCC(O)COCn1cc(Cn2ncc3c(O)ncnc32)nn1 (stereo not drawn),> 100 µM (inactive),> 100 µM (inactive),> 100 µM (inactive),> 100 µM (inactive),> 100 µM (inactive),> 100 µM (inactive),> 100 µM (inactive),> 100 µM (inactive),> 100 µM (inactive),> 100 µM (inactive),> 100 µM (inactive),–,> 100 µM (inactive),> 100 µM (inactive),> 100 µM (inactive),> 100 µM (inactive),> 100 µM (inactive),> 100 µM (inactive),> 100 µM (inactive)
